The values that follow come from patent US10473666B2, “Dye compounds” (SFC CO., LTD., priority 2015, dated 2019).

Series [1] can be described thus: Absorption spectra, emission spectra, molar extinction coefficients and quantum yields of the dye compounds. In kind it is physicochemical.
Another series deals with HeLa A431 cells. The series is described as follows: Photostability: fluorescence intensity over time in stained HeLa A431 cells. Format: cell-based. Particulars: HeLa A431 cells stained with 1.0 μM dye. As for the experimental part: The fluorescence intensities of three areas A, B, and C of HeLa A431 cells stained with the compound of Formula 110 (1.0 μM) were measured at 2-sec intervals for 3500 sec.
The fluorescence intensities of four areas A, B, C, and D of HeLa A431 cells stained with the compound of Formula 98 (1.0 μM) were measured at 2-sec intervals for 3500 sec.
The fluorescence intensities of two areas A and B of HeLa A431 cells stained with Cy3B (1.0 μM) were measured at intervals of 2 s for 2000 s.

Series [2] is described as follows: Absorption spectra, emission spectra, molar extinction coefficients and quantum yields of the dye compounds. In kind it is physicochemical. Particulars: Table 1; solvent DMSO. As to the method: Absorption spectra (λabs), emission spectra (λem), molar extinction coefficients (ε), and quantum yields of the compounds of Formulae 1-7 were measured and the results are shown in Table 1.
Absorption spectra (λabs), emission spectra (λem), molar extinction coefficients, and quantum yields of the compounds of Formulae 44-53 were measured and the results are shown in Table 4.
The products of the two factors (molar extinction coefficient×fluorescence quantum yield) for the inventive dye compounds were much greater than that for the comparative compound.

In series [3] the test system is IgG from mouse serum (primary). The series is described as follows: FLISA plate fluorescence (bioactivity) of dye-conjugated secondary antibody on coated primary IgG. Format: binding. To be noted: for D/P ratio at which the dye-secondary antibody was conjugated to the primary antibody with the highest efficiency: dye-conjugated goat anti-mouse IgG on IgG from mouse serum; for Fluorescence: dye-conjugated goat anti-mouse IgG. As for the experimental part:
1. IgG from mouse serum (primary) was dissolved to a concentration of 10 μg/ml in coating buffer.
2. 100 μl of the solution was divided into each well of a FLISA H/B black corning plate.
3. After top sealing, the plate was incubated in the dark at room temperature for 2 h.
4. Each well was washed three times with 300 μl of washing buffer.
5. 300 μl of blocking buffer was placed into each well. After top sealing, the plate was incubated in the dark at room temperature for 1 h.
6. After removal of the blocking buffer, the wells were washed three times with washing buffer.
7. 100 μl of a dye-conjugated secondary antibody (10 μg/ml) was placed into each well. After top sealing, the plate was incubated in the dark at room temperature for 1 h.
8. After removal of the solution, each well was washed three times with 200 μl of washing buffer.
9. 100 μl of PBS was placed into each sample-containing well.
10. Fluorescence was measured with a microplate reader.
The procedure of Experimental Example 4 was repeated except that the compound of Formula 3 was used.
The procedure of Experimental Example 4 was repeated except that the compound of Formula 50 was used.

For another series, the system named is goat anti-mouse IgG. The series is described as follows: Absorption and fluorescence emission spectra of goat anti-mouse IgG labeled with the dye. As for the experimental part:
Goat anti-mouse IgG was labeled with Alexa Fluor® 568 (Thermo Fisher Scientific) and the compound of Formula 1 and their absorption spectra and fluorescence emission spectra were recorded.
FIG. 1a is an absorption spectrum of goat anti-mouse IgG labeled with the compound of Formula 1, FIG. 1b is an absorption spectrum of goat anti-mouse IgG labeled with Alexa Fluor® 568, FIG. 1c is a fluorescence emission spectrum of goat anti-mouse IgG labeled with the compound of Formula 1, and FIG. 1d is a fluorescence emission spectrum of goat anti-mouse IgG labeled with Alexa Fluor® 568.
Goat anti-mouse IgG was labeled with Alexa Fluor® 594 (Thermo Fisher Scientific) and the compound of Formula 3 and their absorption spectra and fluorescence emission spectra were recorded.
FIG. 2a is an absorption spectrum of goat anti-mouse IgG labeled with the compound of Formula 3, FIG. 2b is an absorption spectrum of goat anti-mouse IgG labeled with Alexa Fluor® 594, FIG. 2c is a fluorescence emission spectrum of goat anti-mouse IgG labeled with the compound of Formula 3, and FIG. 2d is a fluorescence emission spectrum of goat anti-mouse IgG labeled with Alexa Fluor® 594.

The test system of series [4] is mitochondria, Raw 264.7 cells. The series is described as follows: Selectivity for mitochondria: co-localization with MitoTracker Green FM in Raw 264.7 cells. Format: cell-based. To be noted: dye 1 μM. As for the experimental part:
The specific selectivity of the compound of Formula 110 for mitochondria was investigated. To this end, Raw 264.7 cells were co-localized with the compound of Formula 110 and a commercially available mitochondrial marker (MTG, 1 μM MitoTracker Green FM for mitochondria).
OPM images were acquired at 560-600 nm (Formula 110, λex=552 nm) and 470-520 nm (MTG, λex=488 nm) and are shown in FIGS. 4a and 4b, respectively. FIG. 4c is a merged image of FIGS. 4a and 4b. The Pearson's co-localization coefficient (A) was calculated using the LAS AF software. [MTG]=1μM for 30 min incubation,λex=488 nm [Formula 110]=1μM for 30 min incubation,λex=552 nm

Series [5] in a line: Characterization as pH probes: fluorescence intensity versus pH. In kind it is physicochemical. The source says: In addition, the absorption and fluorescence wavelengths of the compound of Formula 97 well match currently available laser lines (488 nm, 532 nm, and 550 nm).
That is, the compound of Formula 111 as a pH probe emitted strong fluorescence at pH 2-6 and the compound of Formula 97 as a pH probe emitted strong fluorescence at pH 8-12.

[6] abbreviates: measured at 2-sec intervals for 3500 sec.
[7] abbreviates: dye-conjugated secondary antibody, plate fluorescence.

In the case of `CCN(CC)c1ccc2c(c1)OC1CC[N+]3=C(C1=C2)C(C)(C)c1ccccc13` (centres unmarked) [Formula 98], in series [1] (Table 6, solvent DMSO), the Quantum yield was determined as 0.77, the “ε (molar extinction coefficient)” value is listed as 57,000 M^−1cm^−1, the λabs stood at 570 nm and the λem is given as 601 nm. Moreover, in series [1] (Table 6, solvent EtOH), the Quantum yield stood at 0.78, the “ε (molar extinction coefficient)” value is recorded as 64,000 M^−1cm^−1, the λabs stood at 570 nm and the λem was determined as 596 nm. For the same compound, in series [1] (Table 6, solvent PBS), the Quantum yield came to 0.51, the “ε (molar extinction coefficient)” value was 57,000 M^−1cm^−1, the λabs stood at 565 nm and the λem was determined as 595 nm. In the series with HeLa A431 cells, the photostability entry is on record as “good photostability”. The “change of fluorescence intensity over time” value (“change” for short) with HeLa A431 cells (setting [6]) is “no substantial decreases in fluorescence intensity for 1 h”.
As for `CC1(CCCCCC(=O)O)C2=[N+](CCC3Oc4c(cc5c6c4CCCN6CCC5)C=C23)c2ccccc21` (centres unmarked) [Formula 2], in series [2], the “Q.Y. (quantum yield)” value came to 0.94 and the λabs was 597 nm. Besides, in series [1] (Table 1, solvent DMSO), the “ε (molar extinction coefficient)” value was 71,500 M^−1cm^−1 and the λem turned out to be 623 nm.
In the case of `CN(CCCCCC(=O)O)c1ccc2c(c1)OC1CC[N+]3=C(C1=C2)C(C)(C)c1cc(S(=O)(=O)CC(S(=O)(=O)[O-])S(=O)(=O)O)ccc13` (centres unmarked) [Formula 4], in series [2], the “Q.Y. (quantum yield)” value turned out to be 0.81 and the λabs is 584 nm. In series [1] (Table 1, solvent DMSO), the “ε (molar extinction coefficient)” value is 76,000 M^−1cm^−1 and the λem is listed as 614 nm.
Consider `CC1(CCCCCC(=O)O)C2=[N+](CCC3Oc4cc5c(cc4C=C23)C(CS(=O)(=O)O)CC(C)(C)N5CCCS(=O)(=O)O)c2ccc(S(=O)(=O)[O-])cc21` (centres unmarked) [Formula 3], for which, in series [2], the “Q.Y. (quantum yield)” value is reported as 0.87. The λabs in series [2] came out at 595 nm. Besides, in series [1] (Table 1, solvent DMSO), the “ε (molar extinction coefficient)” value is recorded as 64,000 M^−1cm^−1. Besides, the λem in series [1] (Table 1, solvent DMSO) was found to be 624 nm. In addition, the “D/P ratio at which the dye-secondary antibody was conjugated to the primary antibody with the highest efficiency” value in series [3] was around 3.4. In addition, the Fluorescence was determined as 64.89 in series [3] (D/P ratio 2.54); 83.79 in series [3] (D/P ratio 3.47); 78.61 in series [3] (D/P ratio 4.86); 80.28 in series [3] (D/P ratio 5.18); 68.06 in series [3] (D/P ratio 5.95). Moreover, the “bioactivity compared with the Alexa Fluor dye” value in series [3] (setting [7]) is “better bioactivity than Alexa Fluor® 594”. For the same compound, in series [3] (when the D/P ratio was ≥5), the “brightness values compared with the Alexa Fluor dye” value is reported as “much higher than those of Alexa Fluor® 594”. Further, the “fluorescence emission intensity compared with the Alexa Fluor dye” value with goat anti-mouse IgG is on record as “higher than that of Alexa Fluor® 594”.
For the compound `CC1(C)CCN(CCCCCC(=O)O)c2ccc3c(c21)OC1CC[N+]2=C(C1=C3)C(C)(C)c1ccccc12` (centres unmarked) [Formula 6], in series [2], the “Q.Y. (quantum yield)” value worked out at 0.72 and the λabs was 579 nm. Besides, in series [1] (Table 1, solvent DMSO), the “ε (molar extinction coefficient)” value was 12,800 M^−1cm^−1 and the λem was 612 nm.
As for `CC1(C)CCN(CCCCCC(=O)O)c2cc3c(cc21)C=C1C2=[N+](CCC1O3)c1ccccc1C2(C)C` (centres unmarked) [Formula 7], in series [2], the “Q.Y. (quantum yield)” value was 1.00 and the λabs is recorded as 584 nm. Besides, in series [1] (Table 1, solvent DMSO), the “ε (molar extinction coefficient)” value is reported as 60,000 M^−1cm^−1 and the λem is on record as 615 nm.
Turning to `CC1(CCCCCC(=O)O)C2=[N+](CCC3Oc4cc(N(CCCS(=O)(=O)O)CCCS(=O)(=O)O)ccc4C=C23)c2ccc(S(=O)(=O)[O-])cc21` (centres unmarked) [Formula 1], in series [2], the “Q.Y. (quantum yield)” value was found to be 0.91 and the λabs was 584 nm. Moreover, in series [1] (Table 1, solvent DMSO), the “ε (molar extinction coefficient)” value is 66,000 M^−1cm^−1 and the λem is on record as 617 nm. In addition, the “D/P ratio at which the dye-secondary antibody was conjugated to the primary antibody with the highest efficiency” value in series [3] is around 4.8. Also, in series [3] (D/P ratio 2.202771), the Fluorescence is 104.026. Moreover, the Fluorescence in series [3] (D/P ratio 4.888795) was 127.5422. For the same compound, the Fluorescence in series [3] (D/P ratio 8.141409) was 95.4. In addition, the Fluorescence in series [3] (D/P ratio 11.30465) was determined as 91.8519. Moreover, in series [3] (D/P ratio 12.45994), the Fluorescence is given as 75.1. In addition, in series [3] (setting [7]), the “bioactivity compared with the Alexa Fluor dye” value is on record as “better bioactivity than Alexa Fluor® 568” and the “brightness values compared with the Alexa Fluor dye” value is given as “much higher than those of Alexa Fluor® 568”. Besides, in the series with goat anti-mouse IgG, the “aggregation compared with the Alexa Fluor dye” value is recorded as “less aggregated than Alexa Fluor® 568” and the “fluorescence emission intensity compared with the Alexa Fluor dye” value is given as “higher than that of Alexa Fluor® 568”.
In the case of `CNc1ccc2c(c1)OC1CC[N+]3=C(C1=C2)C(C)(C)c1ccccc13` (centres unmarked) [Formula 110], in series [1] (Table 6, solvent DMSO), the Quantum yield is recorded as 0.86, the “ε (molar extinction coefficient)” value is 37,000 M^−1cm^−1, the λabs worked out at 561 nm and the λem came out at 597 nm. Besides, in series [1] (Table 6, solvent EtOH), the Quantum yield came out at 0.80, the “ε (molar extinction coefficient)” value is recorded as 50,000 M^−1cm^−1, the λabs worked out at 558 nm and the λem turned out to be 584 nm. Besides, in series [1] (Table 6, solvent PBS), the Quantum yield stood at 0.78, the “ε (molar extinction coefficient)” value is recorded as 37,000 M^−1cm^−1, the λabs amounted to 550 nm and the λem amounted to 579 nm. The “staining selectivity for mitochondria” value in series [4] is listed as “mitochondria were predominantly stained”. For the same compound, in series [4] (MTG 1 μM, 30 min incubation, LAS AF software), the “degree of overlapping (A), Pearson's co-localization coefficient with Mitotracker Green FM” value worked out at 0.73. Besides, the photostability entry with HeLa A431 cells was “good photostability”. Further, the “change” value in the series with HeLa A431 cells (setting [6]) was “no substantial decreases in fluorescence intensity for 1 h”.
As to `CC1(C)C2=[N+](CCC3Oc4cc(N5CCN(CCCCCC(=O)O)CC5)ccc4C=C23)c2ccccc21` (centres unmarked) [Formula 111], in series [1] (Table 6, solvent PBS (pH 7.4)), the Quantum yield is recorded as 0.53, the “ε (molar extinction coefficient)” value is recorded as 55,000 M^−1cm^−1, the λabs was found to be 530 nm and the λem worked out at 585 nm. Also, in series [5], the “pH at which the pH probe emitted strong fluorescence” value was 2-6 pH. Further, in series [5] (pH 1-6), the “fluorescence intensity under acidic conditions” value is “increased”. Further, in series [5] (pH 9-12), the “fluorescence intensity under basic conditions” value is “decreased”.
Take `CC1(C)C2=C3C=C4C5=[N+](CCC4OC3CCN2c2ccccc21)c1ccccc1C5(C)C` (centres unmarked) [Cy3B, reference compound]: in the series on HeLa A431 cells, the photostability entry was “poor photostability”. In addition, the “change” value in the series on HeLa A431 cells (measured at intervals of 2 s for 2000 s) is recorded as “greatly reduced for 1500 s”.
Regarding `CC1(C)C2=[N+](CCC3Oc4cc5c(cc4C=C23)C(CS(=O)(=O)O)=CC(C)(C)N5CCCCCC(=O)O)c2ccc(S(=O)(=O)[O-])cc21` (centres unmarked) [Formula 5], in series [2], the “Q.Y. (quantum yield)” value amounted to 0.56 and the λabs is given as 617 nm. Moreover, in series [1] (Table 1, solvent DMSO), the “ε (molar extinction coefficient)” value is 65,000 M^−1cm^−1 and the λem is on record as 659 nm.
